Reference: US20150086509A1, “COMPOSITIONS AND METHODS FOR TREATING CANCER USING INTERFERON AND MAPK PATHWAY INHIBITOR” (The Trustees of Columbia University in the City of New York, priority 2013, published 2015)
“Also recorded” adds a separate entry of the source.

Tests used:
Type in all cases: cell-based, human
[1] = tested on: Ma1Me3M, a BRAF-V600E cell line; experiment: Comparison of BRAF and MEK inhibition, transcriptional response (Illumina HumanHT-12 microarrays)
Description: We assessed expression fold change at 1 hour, 2, 4, and 8 hours following treatment using Illumina HumanHT-12 microarrays.
Illumina's probe pvalues were used to filter out probes. Probes with p-value>0.05 in more than half of the samples were removed. Then microarrays were normalized according to their 75% percentile values. The 2 control array were averaged, and treated samples were compared to the averaged control to assess fold change.

[2] = tested on: pSTAT1 (interferon-STAT1 pathway); experiment: Western blots of pSTAT1 levels; details: low- and high-pSTAT1 cell lines
Description: (§1) Control samples were collected untreated at time of treatment.
(§2) Samples for protein analysis were lysed using RIPA buffer. Protein concentration was assessed using BCA staining Samples were then normalized to a fixed concentration and mixed with a 5× glycerol/SDS/DTT loading buffer. Lysates were run on gradient (4-12%) Bis-Tris gels. After incubation with horseradish peroxidase-conjugated secondary antibodies, proteins were detected using chemiluminescence.

[3] = tested on: intrinsic apoptotic pathway (cytochrome C release); experiment: Cytochrome C release from the mitochondria
Description: Cytochrome C release was assessed on fresh unfrozen pellets using Sucrose/Mannitol buffer (Majewski et al., 2004). Full details in the supplementary material.
Protocol for Cytochrome C release is taken, as is, from Majewski et al 2004. Lysis buffer: 20 mM Hepes-KOH, [pH 7.5], 210 mM sucrose, and 70 mM mannitol; 1.5 mM MgCl2, 10 mM […], protease inhibitor, and 1 mg digitonin/1 mL lysis buffer.
Cells are trypsinized, collected and spun down in 4C. They are then washed with PBS and spun down again. It is critical that cell pellets will be lysed immediately without freezing. Cells are gently suspended, without vortexing, in lysis buffer. Roughly double the cell pellet volume is used. They are incubated in 25C for 3-10 min, depending all cell line. Spun down at 4C for 20 minutes at highest speed. Supernatant contains cytoplasmic fraction.

[4] = tested on: melanoma cell lines (low- and high-pSTAT1); experiment: Apoptosis assessed by TUNEL staining 72 h after treatment; details: PD325901 50 nM
Description: as §1
Apoptosis was assessed by TUNEL staining Cells were plated in 6-well plates at 200K cells/well. […] TUNEL was performed using Invitrogen BrdU TUNEL kit.

[5] = tested on: caspase pathway (caspases 9, 7 and 3); experiment: Cleaved caspases by Western blot; details: MEK inhibition
Description: as §1, §2

high pSTAT1 cell line = experiment: Cytotoxicity of IFN by SubG1 percentage; details: 48 hours after treatment
Description: The cytotoxicity of IFN was assessed in high pSTAT1 cell line, 48 hours after treatment using SubG1 percentage. […] Cells plated in 6 well plates, 200K cells/well, in 2 mL of growth media. […] 50K cells per well were plated in 6-well plates with 2 mL of media and treated 24 hours later. Cells were counted every 24 hours up to 72 hours. C. […] Cells were plated in 6 well plates, 200K cells/well with 2 mL media.

How did the “transcriptional response compared with the MEK inhibitor PD325901” value ([1]; 2 uM PLX4720 vs 50 nM PD325901, BRAF-V600E cell line) turn out when `CCCS(=O)(=O)Nc1ccc(F)c(C(=O)c2c[nH]c3ncc(Cl)cc23)c1F` [PLX4720] was run?
Its value is “almost identical transcriptional response”.

And the “difference in gene expression fold change between MEKi and BRAFi treatments” value ([1]; Ma1Me3M, all time points (1, 2, 4, 8 hours))?
The value was ≤ 0.5 fold (on a log 2 scale).

Which “pSTAT1 levels after treatment” value [2] does the source give for `O=C(NOC[C@H](O)CO)c1ccc(F)c(F)c1Nc1ccc(I)cc1F` [PD325901] here?
The value was “increase in pSTAT1 levels”.

And the “time of cytochrome C release after treatment” value ([3]; MEKi)?
Its value is “approx. 36 hours”.

And the “cytochrome C release” value ([3]; MEKi alone, all cell lines)?
The value was “activates the intrinsic apoptotic pathway by cytochrome C release”.

What about the “cytotoxic effect of MEK inhibition alone (TUNEL)” value ([4]; high-pSTAT1 cell lines) of the same compound?
The value was “only mild response”.

What about the “cytotoxic effect of MEK inhibition alone (TUNEL)” value ([4]; high-pSTAT1 cell lines, listed as MEK inhibition) of the same compound?
The value was “mostly resistant”.

What about the “cytotoxic effect of MEK inhibition alone (TUNEL)” value ([4]; low-pSTAT1 cell lines) of the same compound?
The value was “sensitive”.

What about the “cleavage/activation of caspase 7 and 9” value ([5]; high-pSTAT1 cell lines) of the same compound?
Its value is “not cleaved”.

And the “cleavage/activation of caspase 7 and 9” value ([5]; low pSTAT1 cell lines)?
Its value is “cleaved and activated”.

For IFNα, which “cytotoxic / apoptotic effect of IFN (SubG1 percentage)” value (high pSTAT1 cell line) is on record?
Its value is “weaker cytotoxic effect than IFNβ; also recorded: dose-dependent effects”.
